# Reference: US20250353841A1 (BIOGEN MA INC., priority 2022, published 2025)
# System: mutant Huntington (HTT) protein
# Test: HTT Mutant HTRF iPSC assay (mHTT protein lowering)
# Format: cell-based
# Conditions: human iPSC derived from a HTT patient with a poly-Q49 mutation
row,Compound,IC50
1,"Cc1cn2nc(-c3cc(F)c4nc([C@H]5C[C@]6(CN[C@H](C)C6)C5)cn4c3)cc(C)c2n1 (single isomer, unassigned) [Compound 178, 6-(8-fluoro-2-((2R*,4r,7R*)-7-methyl-6-azaspiro[3.4]octan-2-yl)imidazo[1,2-a]pyridin-6-yl)-2,8-dimethylimidazo[1,2-b]pyridazine]",< 100 nM
2,Cc1cn2nc(-c3ccc4nc(C5CCN(C)CC5)cn4c3)cc(C)c2n1 [Compound 552],100 to 1000 nM
3,"Cc1cn2nc(-c3cc(F)c4nc(N(C)C5CCNC(C)(C)C5)oc4c3)cc(C)c2n1 (single isomer, unassigned) [Compound 508]",100 to 1000 nM
4,"Cc1cn2nc(-c3cc(F)c4nn(C5C[C@@H](C)N[C@H](C)C5)nc4c3)cc(C)c2n1 (relative stereo) [Compound 393, 6-(2,8-dimethylimidazo[1,2-b]pyridazin-6-yl)-2-((2R,6R)-2,6-dimethylpiperidin-4-yl)-4-fluoro-2H-benzo[d][1,2,3]triazole]",100 to 1000 nM
5,"Cc1cn2nc(-c3cc(F)c4nc(C5CCN(C)CC5)cn4c3)cc(C(F)F)c2n1 [Compound 166, 8-(difluoromethyl)-6-(8-fluoro-2-(1-methylpiperidin-4-yl)imidazo[1,2-a]pyridin-6-yl)-2-methylimidazo[1,2-b]pyridazine]",< 100 nM
6,"Cc1cn2nc(-c3cc(F)c4nn(C5CCN(CC6CC6)CC5)cc4c3)cc2c(C)n1 [Compound 372, 2-(2-(1-(cyclopropylmethyl)piperidin-4-yl)-7-fluoro-2H-indazol-5-yl)-4,6-dimethylpyrazolo[1,5-a]pyrazine]",< 100 nM
7,"Cc1cn2nc(-c3cc(F)c4nc([C@H]5CC[C@]6(CCNC6)CC5)nn4c3)cc(C)c2n1 [Compound 451, (5s,8s)-8-(6-(2,8-dimethylimidazo[1,2-b]pyridazin-6-yl)-8-fluoro-[1,2,4]triazolo[1,5-a]pyridin-2-yl)-2-azaspiro[4.5]decane]",100 to 1000 nM
8,"COCCN1CCC(c2cn3cc(-c4cc5c(C)nc(C)cn5n4)cc(F)c3n2)CC1 [Compound 221, 2-(8-fluoro-2-(1-(2-methoxyethyl)piperidin-4-yl)imidazo[1,2-a]pyridin-6-yl)-4,6-dimethylpyrazolo[1,5-a]pyrazine]",< 100 nM
9,"Cc1cn2nc(-c3cc(Cl)c4oc(C5CCNCC5)nc4c3)cc(C)c2n1 [Compound 535, 7-chloro-5-(2,8-dimethylimidazo[1,2-b]pyridazin-6-yl)-2-(4-piperidyl)-1,3-benzoxazole]",1000 to 9000 nM
10,"Cc1cn2nc(-c3cc(F)c4nc(NC(=O)C5CN(C6COC6)C5)cn4c3)cc(C)c2n1 [Compound 254, N-(6-(2,8-dimethylimidazo[1,2-b]pyridazin-6-yl)-8-fluoroimidazo[1,2-a]pyridin-2-yl)-1-(oxetan-3-yl)azetidine-3-carboxamide]",< 100 nM
11,"Cc1cn2nc(-c3cc(F)c4nc(C5CC6(CCN(C)CC6)C5)oc4c3)cc(C)c2n1 [Compound 458, 6-(2,8-dimethylimidazo[1,2-b]pyridazin-6-yl)-4-fluoro-2-(7-methyl-7-azaspiro[3.5]nonan-2-yl)benzo[d]oxazole]",100 to 1000 nM
12,"CNCCc1cn2cc(-c3cc(C)c4nc(C)cn4n3)cc(F)c2n1 [Compound 12, 2-(6-(2,8-dimethylimidazo[1,2-b]pyridazin-6-yl)-8-fluoroimidazo[1,2-a]pyridin-2-yl)-N-methylethan-1-amine]",100 to 1000 nM
13,"Cc1cn2nc(-c3cc(F)c4nc(C5CCN(C6COC6)CC5)cn4c3)cc(C)c2n1 [Compound 99, 6-(8-fluoro-2-(1-(oxetan-3-yl)piperidin-4-yl)imidazo[1,2-a]pyridin-6-yl)-2,8-dimethylimidazo[1,2-b]pyridazine]",< 100 nM
14,"Cc1cn2nc(-c3cc(F)c4nc(C5CCN(Cc6ncccn6)CC5)nn4c3)cc(C)c2n1 [Compound 441, 6-(2,8-dimethylimidazo[1,2-b]pyridazin-6-yl)-8-fluoro-2-(1-(pyrimidin-2-ylmethyl)piperidin-4-yl)-[1,2,4]triazolo[1,5-a]pyridine]",100 to 1000 nM
15,"O=C1Cc2cc(-c3cc(F)c4nc(C5CCNCC5)cn4c3)cc(F)c2N1 [Compound 57, 7-fluoro-5-(8-fluoro-2-(piperidin-4-yl)imidazo[1,2-a]pyridin-6-yl)indolin-2-one]",1000 to 9000 nM
16,"COc1cc(-c2cc(C)c3nc(C)nn3c2)cc2cn(C3CCNCC3)nc12 [Compound 547, 6-(7-methoxy-2-(piperidin-4-yl)-2H-indazol-5-yl)-2,8-dimethyl-[1,2,4]triazolo[1,5-a]pyridine]",1000 to 9000 nM
17,"CCN1CCC(c2nc3cc(-c4cc(C)c5nc(C)cn5n4)cc(F)c3[nH]2)CC1 [Compound 425, 6-(2-(1-ethylpiperidin-4-yl)-7-fluoro-1H-benzo[d]imidazol-5-yl)-2,8-dimethylimidazo[1,2-b]pyridazine]",100 to 1000 nM
18,"Cc1cn2nc(-c3cc(F)c4nc(NC(=O)C5CC56CCNC6)cn4c3)cc(C)c2n1 (racemic) [Compound 253, N-(6-(2,8-dimethylimidazo[1,2-b]pyridazin-6-yl)-8-fluoroimidazo[1,2-a]pyridin-2-yl)-5-azaspiro[2.4]heptane-1-carboxamide]",100 to 1000 nM
19,"COc1cc(-c2cc3c(C)nc(C)cn3n2)cn2cc([C@H]3[C@@H]4CN(C)C[C@@H]43)nc12 [Compound 542, 2-(8-methoxy-2-((1R,5S,6r)-3-methyl-3-azabicyclo[3.1.0]hexan-6-yl)imidazo[1,2-a]pyridin-6-yl)-4,6-dimethylpyrazolo[1,5-a]pyrazine]",100 to 1000 nM

row,Compound,IC50
1,"Cc1cn2cc(-c3cc(Cl)c4oc(C5CCNCC5)nc4c3)cc(F)c2n1 [Compound 534, 7-chloro-5-(8-fluoro-2-methylimidazo[1,2-a]pyridin-6-yl)-2-(piperidin-4-yl)benzo[d]oxazole]",1000 to 9000 nM
2,"COC1CC1N1CCC(c2cn3cc(-c4cc(C)c5nc(C)cn5n4)cc(F)c3n2)CC1 (stereo not shown) [Compound 205, 6-(8-fluoro-2-(1-(2-methoxycyclopropyl)piperidin-4-yl)imidazo[1,2-a]pyridin-6-yl)-2,8-dimethylimidazo[1,2-b]pyridazine]",100 to 1000 nM
3,"Cn1cc2cc(-c3cc(F)c4nn(C5CCNCC5)nc4c3)cc(C(F)F)c2n1 [Compound 382, 6-(7-(difluoromethyl)-2-methyl-2H-indazol-5-yl)-4-fluoro-2-(piperidin-4-yl)-2H-benzo[d][1,2,3]triazole]",100 to 1000 nM
4,"Cn1cc2cc(-c3cc(F)c4nc(C5CCNCC5)cn4c3)cc(C(F)F)c2n1 [Compound 84, 7-(difluoromethyl)-5-(8-fluoro-2-(piperidin-4-yl)imidazo[1,2-a]pyridin-6-yl)-2-methyl-2H-indazole]",< 100 nM
5,"Cc1cn2nc(-c3cc(F)c4nc(C5CCN(C6CC6)CC5)cn4c3)cc(C)c2n1 [Compound 113, 6-[2-(1-cyclopropyl-4-piperidyl)-8-fluoro-imidazo[1,2-a]pyridin-6-yl]-2,8-dimethyl-imidazo[1,2-b]pyridazine]",< 100 nM
6,Cc1cn2nc(-c3cc(F)c4nc(NC(=O)C56CCCN(CC5)C6)cn4c3)cc(C)c2n1 (racemic) [Compound 279],< 100 nM
7,Cc1cn2nc(-c3cc(F)c4nc(C5CC6CCC(C5)N6)cn4c3)cc(C)c2n1 (stereo not shown) [Compound 206],< 100 nM
8,"Fc1cc(-c2ccc3ncsc3c2)cn2cc(C3CCNCC3)nc12 [Compound 44, 6-(8-fluoro-2-(piperidin-4-yl)imidazo[1,2-a]pyridin-6-yl)benzo[d]thiazole]",1000 to 9000 nM
9,"Cc1cn2nc(-c3cc(F)c4nc([C@H]5[C@@H]6CN(C7CCC7)C[C@@H]65)cn4c3)cc(C)c2n1 [Compound 211, 6-(2-((1R,5S,6r)-3-cyclobutyl-3-azabicyclo[3.1.0]hexan-6-yl)-8-fluoroimidazo[1,2-a]pyridin-6-yl)-2,8-dimethylimidazo[1,2-b]pyridazine]",< 100 nM
10,"COCCN1CCC(c2nc3cc(-c4cc(C)c5nc(C)cn5n4)cc(F)c3[nH]2)CC1 [Compound 417, 6-(7-fluoro-2-(1-(2-methoxyethyl)piperidin-4-yl)-1H-benzo[d]imidazol-5-yl)-2,8-dimethylimidazo[1,2-b]pyridazine]",100 to 1000 nM
11,"[2H]C1(N2CCC(c3cn4cc(-c5cc(C)c6nc(C)cn6n5)cc(F)c4n3)CC2)CC1 [Compound 207, 6-(2-(1-(cyclopropyl-1-d)piperidin-4-yl)-8-fluoroimidazo[1,2-a]pyridin-6-yl)-2,8-dimethylimidazo[1,2-b]pyridazine]",< 100 nM
12,"Cc1n[nH]c2ccc(-c3cc(F)c4nc(C5CCNCC5)cn4c3)cc12 [Compound 53, 5-(8-fluoro-2-(piperidin-4-yl)imidazo[1,2-a]pyridin-6-yl)-3-methyl-1H-indazole]",1000 to 9000 nM
13,Cc1cn2nc(-c3cc(F)c4nc(C56CC(C5)N(C)C6)cn4c3)cc(C)c2n1 [Compound 80],100 to 1000 nM
14,"COc1cc(-c2cc(F)c3nc(C4CCN(C)CC4)cn3c2)nn2nc(C)nc12 [Compound 225, 6-(8-fluoro-2-(1-methylpiperidin-4-yl)imidazo[1,2-a]pyridin-6-yl)-8-methoxy-2-methyl-[1,2,4]triazolo[1,5-b]pyridazine]",< 100 nM
15,"CCN1CCC(c2cn3cc(-c4cc(F)c5nn(C)cc5c4)cc(F)c3n2)CC1 [Compound 5, 5-(2-(1-ethylpiperidin-4-yl)-8-fluoroimidazo[1,2-a]pyridin-6-yl)-7-fluoro-2-methyl-2H-indazole]",100 to 1000 nM
16,"Cc1cn2nc(-c3cc(F)c4nn(CC5CNC5)nc4c3)cc(C)c2n1 [Compound 383, 2-(azetidin-3-ylmethyl)-6-(2,8-dimethylimidazo[1,2-b]pyridazin-6-yl)-4-fluoro-2H-benzo[d][1,2,3]triazole]",100 to 1000 nM
17,"Cc1cc(-c2cc(F)c3nc(C4CCNCC4)cn3c2)ccc1C#N [Compound 38, 4-(8-fluoro-2-(piperidin-4-yl)imidazo[1,2-a]pyridin-6-yl)-2-methylbenzonitrile]",1000 to 9000 nM
18,"Cc1cn2nc(-c3cc(F)c4nc([C@H]5[C@@H]6CN(CC7CC7)C[C@@H]65)cn4c3)cc(C)c2n1 [Compound 212, 6-(2-((1R,5S,6r)-3-(cyclopropylmethyl)-3-azabicyclo[3.1.0]hexan-6-yl)-8-fluoroimidazo[1,2-a]pyridin-6-yl)-2,8-dimethylimidazo[1,2-b]pyridazine]",< 100 nM
